Among the data in patent US20260365663A1, “EMOPAMIL-BINDING PROTEIN INHIBITORS AND USES THEREOF” (BIOGEN MA INC., priority 2022, published 2026) are IC50 values, retold here.

Bounds are passed on as bounds.

For one assay, the target named is T1, EBP (Homo sapiens, UniProt Q15125).
T1 construct: HEK293T cells were utilized as the source of EBP enzyme; endogenous in cells; host or cells: HEK293T
T1 sequence (Q15125 whole entry): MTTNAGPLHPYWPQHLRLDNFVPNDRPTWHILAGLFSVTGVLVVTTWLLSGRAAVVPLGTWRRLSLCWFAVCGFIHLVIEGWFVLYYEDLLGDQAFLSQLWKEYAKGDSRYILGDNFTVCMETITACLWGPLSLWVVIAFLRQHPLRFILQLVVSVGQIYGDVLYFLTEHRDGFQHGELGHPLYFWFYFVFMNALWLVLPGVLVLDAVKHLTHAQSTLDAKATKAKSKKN
Briefly: EBP Functional Assay (EBP immunoaffinity LC-MS assay). The assay is classed as biochemical.
Settings: not given
As to the method: The EBP immunoaffinity (IA) LC-MS assay measures the potency of small molecule inhibitors of EBP by quantifying their concentration-dependent changes in the enzyme's substrate and product using liquid chromatography atmospheric pressure chemical ionization multiple reaction monitoring mass spectrometry (LC-APCI MRM MS). HEK293T cells were utilized as the source of EBP enzyme. The enzyme was incubated with the small molecule inhibitors at variable concentrations for 30 min. Deuterated form of EBP substrate, zymosterol-d5 (Avanti Polar Lipids, Cat #700068P-1 mg), was then added and the plate was incubated at 37 °C for 4 h. Finally, the sterol isomers were extracted and injected to LC-APCI MRM MS. MRM transition used for the quantification for both zymosterol and dihydrolathosterol (substrate and product of EBP enzymatic reaction, respectively) is 372.3-203.2, CE 30 and DP 80 in positive ion mode. Percent conversion of the zymosterol-d5 to dehydrolathosterol-d5 was used to derive IC50 curves. Tasin-1 (1′-[(4-Methoxyphenyl)sulfonyl]-4-methyl-1,4′-bipiperidine, CAS 792927-06-1) was used as the reference small molecule inhibitor.
Percent conversion versus the compound concentration data were fit to the following 4-parameter logistic model to generate IC50 curves: […]
As to `Cc1nc(C(F)(F)F)ccc1S(=O)(=O)N1CC2(CC(N3CC4(COC4)C3)C2)C1` [Example 4, 6-(2-((2-Methyl-6-(trifluoromethyl)pyridin-3-yl)sulfonyl)-2-azaspiro[3.3]heptan-6-yl)-2-oxa-6-azaspiro[3.3]heptane], the IC50 lay in the range of 500 to 3000 nM.

Molecule `Cc1nc(C(F)(F)F)ccc1S(=O)(=O)N1CC2(CC(N3CC4(CCO4)C3)C2)C1` [Example 6, 6-(2-((2-Methyl-6-(trifluoromethyl)pyridin-3-yl)sulfonyl)-2-azaspiro[3.3]heptan-6-yl)-1-oxa-6-azaspiro[3.3]heptane] displayed an IC50 of 500 to 3000 nM.

The assay is the same for the next values; noted with them: HEK293T cells as source of EBP enzyme; zymosterol-d5 substrate; inhibitor 30 min, then 37 °C for 4 h; percent conversion to dehydrolathosterol-d5 by LC-APCI MRM MS; read-out: EBP Functional Assay.
Consider `Cc1nc(C(F)(F)F)ccc1S(=O)(=O)N1CC2(CC[C@@H](N3CCOCC3)C2)C1` (single isomer, unassigned) [Example 60], for which the IC50 was under 100 nM.

Regarding `Cc1nc(C(F)(F)F)ccc1S(=O)(=O)N1CC2(CC[C@H](N3CCOCC3)C2)C1` (single isomer, unassigned) [Example 61], the IC50 lay in the range of 100 to 500 nM.

As to `Cc1cc(C(F)(F)F)ncc1S(=O)(=O)N1CC2(CC[C@@H](N3CCOCC3)C2)C1` (single isomer, unassigned) [Example 62], the IC50 is under 100 nM.

With `Cc1cc(C(F)(F)F)ncc1S(=O)(=O)N1CC2(CC[C@H](N3CCOCC3)C2)C1` (single isomer, unassigned) [Example 63], the IC50 fell in the range of 100 to 500 nM.

For `Cc1nc(Cl)ccc1S(=O)(=O)N1CC2(CC[C@@H](N3CCOCC3)C2)C1` (single isomer, unassigned) [Example 64], the IC50 was under 100 nM.

Consider `Cc1nc(Cl)ccc1S(=O)(=O)N1CC2(CC[C@H](N3CCOCC3)C2)C1` (single isomer, unassigned) [Example 65], for which the IC50 lay in the range of 100 to 500 nM.

As to `Cc1cc(S(=O)(=O)N2CC3(CC[C@@H](N4CCOCC4)C3)C2)n(C)n1` (single isomer, unassigned) [Example 66], the IC50 was 100 to 500 nM.

For `Cc1cc(S(=O)(=O)N2CC3(CC[C@H](N4CCOCC4)C3)C2)n(C)n1` (single isomer, unassigned) [Example 67], the IC50 fell in the range of 500 to 3000 nM.

As to `Cc1nc(C(C)(F)F)ccc1S(=O)(=O)N1CC2(CC(N3CC4(COC4)C3)C2)C1` [Example 1, 6-(2-((6-(1,1-Difluoroethyl)-2-methylpyridin-3-yl)sulfonyl)-2-azaspiro[3.3]heptan-6-yl)-2-oxa-6-azaspiro[3.3]heptane], the IC50 was under 100 nM.

Turning to `Cc1nc(C(C)(F)F)ccc1S(=O)(=O)N1CC2(CC(NC3CCOCC3)C2)C1` [Example 2, 2-((6-(1,1-Difluoroethyl)-2-methylpyridin-3-yl)sulfonyl)-N-(tetrahydro-2H-pyran-4-yl)-2-azaspiro[3.3]heptan-6-amine], the IC50 is under 100 nM.

On to `Cc1nc(C(F)(F)F)ccc1S(=O)(=O)N1CC2(CC(NC3CCOCC3)C2)C1` [Example 3, 2-((2-Methyl-6-(trifluoromethyl)pyridin-3-yl)sulfonyl)-N-(tetrahydro-2H-pyran-4-yl)-2-azaspiro[3.3]heptan-6-amine], for which the IC50 lay within 100 to 500 nM.

Regarding `Cc1nc(C(F)(F)F)ccc1S(=O)(=O)N1CC2(CC(N3CCOCC3)C2)C1` [Example 5, 4-(2-((2-Methyl-6-(trifluoromethyl)pyridin-3-yl)sulfonyl)-2-azaspiro[3.3]heptan-6-yl)morpholine], the IC50 lay in the range of 100 to 500 nM.

For the molecule `Cc1nc(C(F)(F)F)ccc1S(=O)(=O)N1CC2(CC(NC3(C4CCOCC4)CC3)C2)C1` [Example 7, 2-((2-Methyl-6-(trifluoromethyl)pyridin-3-yl)sulfonyl)-N-(1-(tetrahydro-2H-pyran-4-yl)cyclopropyl)-2-azaspiro[3.3]heptan-6-amine], the IC50 lay within 100 to 500 nM.

For the molecule `Cc1nc(C(F)(F)F)ccc1S(=O)(=O)N1CC2(CC(NC3COC3)C2)C1` [Example 8, 2-((2-Methyl-6-(trifluoromethyl)pyridin-3-yl)sulfonyl)-N-(oxetan-3-yl)-2-azaspiro[3.3]heptan-6-amine], the IC50 was 500 to 3000 nM.
